Results taken from patent US6482805B2 (Parker Hughes Institute, priority 1998, dated 2002).
Like-named read-outs stand apart in the source and are kept apart here.

What was measured:
[1] = test system: human sperm; experiment: cells; assay type: cell-based
Method: All donor specimens were obtained after informed consent and in compliance with the guidelines of the Hughes Institute Institutional Review Board. To evaluate the spermicidal effects of ZDV derivatives, highly motile fraction of pooled donor sperm (n 8) were prepared from liquefied normospermic semen by discontinuous (90-45%) gradient centrifugation using Enhance-S-Plus (Conception technologies, San Diego, Calif.) cell isolation medium as previously described. [D'Cruz O J, et al., Biol Reprod 1999; 60:1419-1428; D'Cruz O J, et al., Biol Reprod 1995; 53:118-1130; and D'Cruz O J, et al., Biol Reprod 1998; 58:1515-1526]. The resulting pellet was washed twice and resuspended in 1-ml of Biggers, Whitten, and Whittingam's medium (BWW) (Irvine Scientific, Santa Ana, Calif.) containing 3% BSA (fraction V; Sigma Chemical Co., St. Louis, Mo.). One-ml aliquots of the sperm suspension were centrifuged (500× g, 5 min) and incubated at 45° for 90 min at 37° C. in 5% CO2 atmosphere. The supernatant containing primarily motile sperm was aspirated carefully, washed once in BWW medium containing 25 mM HEPES and 0.3% BSA and resuspended in the same medium. Pooled motile sperm (=10×10^6/ml) prepared from 3-5 donors were suspended in 1-ml of BWW-0.3% BSA in the presence and absence of serial 2-fold dilutions of test substance (1.9 μm to 500 μM) in 0.5% dimethyl sulfoxide (DMSO). The stock solutions of synthetic compounds were prepared in DMSO (100 mM) and diluted in medium to yield the desired concentrations. A corresponding volume of DMSO (0.5%) was added to control tubes. After 3 hour incubation at 37° C., the percentage of motile sperm was evaluated by computer-assisted sperm motion analysis (CASA) [D'Cruz O J, et al., Biol Reprod 1998; 58:1515-1526; D'Cruz O J, et al., Mol Hum Reprod 1998; 4:683-693; D'Cruz O J, et al., Biol Reprod 1999; 60:435-444]. The percentage motilities were compared with those of sham-treated control suspensions of motile sperm. The spermicidal activity of test compounds was expressed as the mean EC50 values (the final concentration of the compound in the medium that decreases the proportion of motile sperm by 50%) calculated from three independent experiments.
For CASA, 4 μl of each sperm suspension were loaded into a 20-μm Microcell chamber at 37° C. Eight to ten fields per chamber were scanned for analysis using a Hamilton Thome Integrated Visual Optical System (IVOS), version 10 instrument (Hamilton Thome Research Inc., Danvers, Mass.) [see, D'Cruz O J, et al. Biol Reprod 1998; 58:1515-1526; and D'Cruz O J, et al., Mol Hum Reprod 1998; 4:683-693; and D'Cruz O J, et al., Biol Reprod 1999; 60:435-444]. Each field was recorded for 30 sec. The computer calibrations were set at 30 frames at a frame rate of 30/s. Other settings were as follows: minimum contrast 8; minimum size 6; low-size gate, 1.0; high-size gate, 2.9; low-intensity gate, 0.6; high-intensity gate, 1.4; phase-contrast illumination; low path velocity at 10 μm/s, and threshold straightness at 80%; magnification factor, 1.95.
The sperm kinematic parameters that were determined included numbers of motile (MOT) and progressively (PRG) motile sperm; curvilinear velocity (VCL; a measure of the total distance traveled by a given sperm during the acquisition divided by the time elapsed); average path velocity (VAP; the spatially averaged path that eliminates the wobble of the sperm head), straight line velocity (VSL; the straight-line distance from beginning to end of track divided by time taken), beat cross frequency (BCF, frequency of sperm head crossing sperm average path), the amplitude of lateral head displacement (ALH; the mean width of sperm head oscillation), straightness (STR=VSL/VAP×100); linearity (LIN=VSL/VCL×100; departure of sperm track from a straight line). Data from each individual cell track were recorded and analyzed. At least 200 motile sperm were analyzed for each aliquot sampled.

[2] = test system: binding of human sperm to human zona; experiment: Human sperm-zona binding assay (Example 5); assay type: cell-based
Method: The human sperm-zona recognition and binding assay appears to predict the in vitro and in vivo fertilization outcome. […] Due to the variable number of sperm binding to human eggs, the sperm-zona binding ratio was used to assess sperm-zona binding capacity.
Following coincubation, the number of tightly bound green (SYBR 14) and blue (SYTO 17) sperm were assessed by laser scanning confocal microscopy. Frozen human eggs (n=46) were thawed and rinsed three times in BWW-0.3% BSA, and in BWW-3.5% BSA, before addition of sperm suspension. […] The first aliquot was incubated with 2.5 μM SYBR 14 (Molecular Probes) and the second aliquot was incubated with 5 μM SYTO 17. Following 30 minutes of incubation, sperm motility was assessed by CASA. Motile sperm with intensely stained green or blue nuclei were washed twice in BWW and one million motile sperm labeled with SYBR 14 (green) and SYTO 17 (blue) were added to dish containing human zona (n=2) under mineral oil and coincubated for 4 hours. Following extensive washing of eggs to dislodge any loosely adherent sperm, the eggs were mounted on glass slides and examined under a BioRad MRC-1024 Laser Scanning Confocal Microscope as described above. Using fluorescence imaging, the fluorescence emission of SYBR-14 and SYTO-17 localized on the sperm head was simultaneously recorded using 598/40 nm, and 680 DF32 emission/filter respectively. Confocal images of Z-sections were obtained using a Nikon […] (NA 1.4) objective and Kalman collection filter. Digitized images were processed with the Adobe Photoshop software and final images were printed using a Fujix Pictography 3000 color printer. The number of tightly bound green and blue-colored sperm nuclei adherent to each human egg were counted from the Z-sections of fluorescence images of each egg on all focal planes and expressed as a binding ratio.

[3] = test system: human sperm in donor semen; experiment: Sperm immobilizing activity in diluted semen / seminal plasma (Example 3); assay type: cell-based; settings: 200 μM, 3 hours, CASA
Method: Following 3 hours of incubation, duplicate aliquots (4-μl) were used for CASA.

[4] = test system: human sperm; experiment: Time course of sperm immobilizing activity by CASA (Example 2); assay type: cell-based; settings: 100 μM
Method: At timed intervals, duplicate aliquots (4-μl) were transferred to two 20 μm Microcell chambers and sperm motility was assessed by CASA.

[5] = test system: cervicovaginal epithelium of female CD-1 mice; experiment: Cervicovaginal tissue inflammation after repetitive intravaginal application in mice (Example 8); settings: for neutrophils in cervicovaginal squamous epithelia (immunofluorescence): 5% in cream base intravaginally; for mice with inflammatory response or disruption of the squamous epithelia: 5% in cream base intravaginally daily for 5 or 20 days, 10 mice
Method: In particular, 30 female CD-1 mice, 6 months old were randomly divided into two groups (A and B). Each group was further divided into three subgroups of 5 mice. […] After 5 and 20 days respectively, mice were killed by cervical dislocation, and tissues from the genitourinary tract were fixed in 10% buffered formalin. To determine the degree of inflammation and membrane integrity of squamous epithelia, conventional paraffin-embedded sections (6-pm) were prepared and stained with hematoxylin and eosin and observed under 300× magnification with a Leica microscope interfaced with an image analysis system (Scion), and images were transferred to Adobe Photoshop software for printout. The four stages of the estrous cycle were determined histologically.
Following antigen retrieval by heating (93° C. for 10 min in 10 mM sodium citrate buffer, pH 6.0), sections were preincubated with 10% normal goat serum in PBS, treated with optimal dilution (5 μg/ml) of the mAb followed by FITC-conjugated goat anti-rat IgG (Pierce Chemical Co., Rockford, IL). Each incubation step lasted 60 min with 5 min PBS washes between each step. The slides were counterstained with PI (1 μg/ml), washed in deionized water, mounted in anti-fade (BioRad), and visualized by laser confocal microscopy as described above. Negative controls were carried out by replacing the primary mAb with PBS or using rat IgG2 as control mAb

[6] = 3 hour incubation, mean ± SD of three experiments, read-out: EC50 (sperm motility, CASA) (converted)
[7] = Table 4, mean of three experiments, read-out: Sperm EC50

| Molecule | EC50 [1, 6] | EC50 [1, 7] | mean sperm-zona binding ratio ([2]; sperm pretreated with 25 μM) | mean sperm-zona binding ratio ([2]; sperm pretreated with 50 μM) | mean sperm-zona binding ratio ([2]; sperm pretreated with 100 μM) | sperm motility after direct addition to semen diluted in PBS [3] | exposure time to complete sperm immobilization [4] | time required for 50% motility loss of progressively motile sperm [4] | EC50 ([1]; Homo sapiens, Sperm, Table 4, mean of three experiments, read-out: Sperm EC50) | neutrophils in cervicovaginal squamous epithelia (immunofluorescence) [5] | mice with inflammatory response or disruption of the squamous epithelia [5] | EC50 ([1]; Homo sapiens, Sperm, 3 h, read-out: EC50 (sperm motility, CASA)) | EC50 ([1]; Homo sapiens, Sperm, read-out: Sperm EC50) |
| --- | --- | --- | --- | --- | --- | --- | --- | --- | --- | --- | --- | --- | --- |
| 5-Bromo-6-methoxy-5,6-dihydro-3′-azidothymidine 5′-[Phenyl methoxyalaninyl phosphate] [WHI-04] | 35 ± 5 µM | 35 µM |  |  |  |  |  |  |  |  |  |  |  |
| 5-Bromo-6-methoxy-5,6-dihydro-3′-azidothymidine-5′-[(p-Fluorophenyl methoxyalaninyl phosphate] [WHI-06] | 15 µM | 15 µM |  |  |  |  |  |  |  |  |  |  |  |
| 5-bromo-6-methoxy-5,6-dihydro-3 ′-azidothymidine-5 ′-(p-methoxyphenyl) methoxyalaninyl phosphate [WHI-05] | 24 µM | 24 µM | 0.18 | 0.07 | 0.10 | complete loss of motility | 60 min | 17 min |  |  |  |  |  |
| CCCCCCCCCc1ccc(OCCOCCOCCOCCOCCOCCOCCOCCOCCO)cc1 [Compound N-9, nonoxynol-9, reference compound] |  |  |  |  |  |  |  |  | 81 µM | intense positive staining | 9 of 10 |  |  |
| COC(=O)C(C)NP(=O)(OCC1OC(N2C(=O)NC(=O)C(C)(Br)C2OC)CC1N=[N+]=[N-])Oc1ccc(Br)cc1 (stereo not shown) [WHI-07, 5-Bromo-6-methoxy-5,6-dihydro-3′-azidothymidine-5′-(p-Bromophenyl Methoxyalaninyl Phosphate)] |  |  | 0.088 | 0.039 | 0.009 | complete loss of motility | 30 min | 6 min |  | absence of neutrophils | none of the 10 mice | 5 µM | 5 µM |
